Laboratory results taken from patent US6815546B2, “Analogues of camptothecin, their use as medicaments and the pharmaceutical compositions containing them” (Societe de Recherches et d'Applications Scientifiques …, priority 1995, dated 2004).

Biological target: T1, DNA topoisomerase 1 of purified calf thymus (Bos taurus, UniProt F1MN93)
T1 construct: DNA topoisomerase 1 of purified calf thymus (Gibco-BRL, Paisley, United Kingdom); purchased Gibco-BRL, Paisley, United Kingdom; host or cells: calf thymus tissue
T1 sequence (F1MN93 1-767): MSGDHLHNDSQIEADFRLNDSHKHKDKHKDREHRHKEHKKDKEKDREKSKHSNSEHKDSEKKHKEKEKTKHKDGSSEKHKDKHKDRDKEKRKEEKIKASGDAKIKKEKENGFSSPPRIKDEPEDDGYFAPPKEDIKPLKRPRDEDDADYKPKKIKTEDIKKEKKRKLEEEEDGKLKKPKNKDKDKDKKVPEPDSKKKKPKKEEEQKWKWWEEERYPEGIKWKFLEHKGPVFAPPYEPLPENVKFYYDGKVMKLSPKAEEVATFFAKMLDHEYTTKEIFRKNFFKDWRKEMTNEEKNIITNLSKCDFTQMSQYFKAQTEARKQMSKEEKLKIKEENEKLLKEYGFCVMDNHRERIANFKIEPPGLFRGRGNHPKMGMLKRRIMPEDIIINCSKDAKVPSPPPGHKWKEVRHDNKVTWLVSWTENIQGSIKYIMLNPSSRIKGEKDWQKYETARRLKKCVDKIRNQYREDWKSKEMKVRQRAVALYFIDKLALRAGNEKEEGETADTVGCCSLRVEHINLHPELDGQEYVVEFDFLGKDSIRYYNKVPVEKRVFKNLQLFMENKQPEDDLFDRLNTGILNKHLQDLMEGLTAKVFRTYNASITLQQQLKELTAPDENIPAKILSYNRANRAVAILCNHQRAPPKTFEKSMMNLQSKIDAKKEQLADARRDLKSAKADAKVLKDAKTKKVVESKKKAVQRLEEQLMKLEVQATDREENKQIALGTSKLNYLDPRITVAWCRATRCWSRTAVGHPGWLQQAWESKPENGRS
Assay: Relaxation activity test of DNA induced by topoisomerase 1
Type: biochemical
Conditions: supercoiled pUC19, 15 minutes at 37° C.
Description: 1. Relaxation Activity Test of DNA Induced by Topoisomerase 1
All the reactions are carried out in a 20 μl reaction buffer constituted by 50 mM of Tris-HCl (pH 7.5), 50 mM of KCl, 0.5 mM of dithiothreitol, 10 mM of MgCl2, 0.1 mM of ethyldiamine tetraacetic acid (EDTA), 30 μg/ml of bovine serum albumin and 300 ng of supercoiled pUC19 (Pharmacia Biotech, Orsay, France) with or without the compounds to be tested at defined concentrations. All the compounds to be tested are initially dissolved in dimethylsulphoxide (DMSO) at 50 mM, the other dilutions being carried out with distilled water. […] The reaction is initiated by the addition of a unit of DNA topoisomerase 1 of purified calf thymus (Gibco-BRL, Paisley, United Kingdom) and is carried out for 15 minutes at 37° C. The reactions are stopped by the addition of 3 μl of a mixture containing 1% dodecyl sodium sulphate at 1%, 20 mM of EDTA and 500 μg/ml of K proteinase (Boehringer Mannheim, Meylan, France). After an additional incubation period of 30 minutes at 37° C., 2 μl of a loading buffer containing 10 mM of Na2HPO4, 0.3% of bromophenol blue et 16% Ficoll are added to samples which are subjected to electrophoresis in agarose gels at 1.2% at 1 V/cm for 20 hours in a buffer containing 36 mM of Tris-HCl at pH 7.8, 30 mM of Na2HPO4, 1 mM of EDTA and 2 μg/ml of chloroquine. The gels are stained with 2 μg/ml of ethidium bromide, photographed under UV light at 312 nm with a camera and the fluorescent intensity is measured with a bioProfil camera (Vilber Lournat, Lyon, France) with a view to determining the percentage of relaxed DNA. Each experiment is carried out at least three times in duplicate.
In each experiment, the supercoiled plasmid DNA is incubated alone or with topoisomerase 1. The reaction is completed within 15 minutes. For each compound to be tested or control, the supercoiled plasmid DNA is incubated in the presence of 500 μM of compound to be tested with enzyme or without enzyme plus the compound to be tested, at concentrations of 10 μM, 100 μM, 200 μM and 500 μM.

Structure (SMILES)	PERCENTAGE OF RELAXED DNA (10 μM compound) [%]	PERCENTAGE OF RELAXED DNA (100 μM compound) [%]	PERCENTAGE OF RELAXED DNA (200 μM compound) [%]	PERCENTAGE OF RELAXED DNA (500 μM compound) [%]
CCC1(O)CC(=O)OCc2c1cc1n(c2=O)Cc2cc3ccccc3nc2-1 (centres unmarked) [Example 3, 5-ethyl-5-hydroxy-1,4,5,13-tetrahydro-3H,15H-oxepino [3′,4′:6,7]indolizino[1,2-b]quinoline-3,15-dione]	79.9	59.9	55.0	45.7
CCc1c2c(nc3ccccc13)-c1cc3c(c(=O)n1C2)COC(=O)CC3(O)CC (centres unmarked) [Example 9, 5,12-diethyl-5-hydroxy-1,4,5,13-tetrahydro-3H,15H-oxepino[3′,4′:6,7]indolizino[1,2-b]quinoline-3,15-dione]	77.1	33.9	29.7	20.4
CCC1(O)CC(=O)OCc2c1cc1n(c2=O)Cc2cc3cc4c(cc3nc2-1)OCCO4 (centres unmarked) [Example 11, 8-ethyl-8-hydroxy-2,3,8,9,12,15-hexahydro-10H,13H-[1,4]dioxino [2,3-g]oxepino[3′,4′:6,7]indolizino[1,2-b]quinoline-10,13-dione]	65.0	50.3	39.8	31.0
CCC(O)(CC(=O)O)c1cc2n(c(=O)c1CO)Cc1cc3ccccc3nc1-2 (centres unmarked) [Example 4, 3-hydroxy-3-[8-(hydroxymethyl)-9-oxo-9,11-dihydroindolizino [1,2-b]quinolin-7-yl]pentanoic acid]	99.1	82.2	67.6	32.9
CCc1c2c(nc3ccccc13)-c1cc(C(O)(CC)CC(=O)O)c(CO)c(=O)n1C2 (centres unmarked) [Example 10, 3-[12-ethyl-8-(hydroxymethyl)-9-oxo-9,11-dihydroindolizino[1,2-b]quinolin-7-yl]-3-hydroxypentanoic acid]	96.9	45.4	26.2	8.7
